The RepoRT retention time repository

experiment: HILIC, Waters Atlantis Premier BEH Z-HILIC, 100 × 2.1 mm, 1.7 µm, 40 °C, 0.15 mL/min, estimated dead time 1.5 min; A: water + 20 mM ammonium carbonate + 5 µM medronic acid; B: 10% water + 90% acetonitrile + 2 mM ammonium carbonate + 0.5 µM medronic acid; gradient (min/%B) 0/100 18/55 18.1/20 21.5/20 22/100 23.5/100 25.5/100; conditions: stereoisomer not certain

Structure (SMILES) | LC retention time [min]
O=C(O)CCC(O)C(=O)O (stereo not given) [2-hydroxy glutaric acid] | 9.58
Nc1ncnc2c1ncn2C1OC(COP(=O)(O)OP(=O)(O)O)C(O)C1O (stereo not given) [ADP] | 11.9
O=C(O)CCCCC1SCC2NC(=O)NC21 (stereo not given) [Biotin] | 4.6
C[N+](C)(C)CC(O)CC(=O)[O-] (stereo not given) [Carnitine] | 9.95
O=C(O)CC(O)(CC(=O)O)C(=O)O [Citric acid] | 14.7
Cc1cc2nc3c(=O)[nH]c(=O)nc-3n(CC(O)C(O)C(O)COP(=O)(O)OP(=O)(O)OCC3OC(n4cnc5c(N)ncnc54)C(O)C3O)c2cc1C (stereo not given) [FAD] | 7.27
O=C(CO)C(O)C(O)C(O)COP(=O)(O)O (stereo not given) [Fructose 6-phosphate] | 12
O=P(O)(O)OCC1OC(O)(COP(=O)(O)O)C(O)C1O (stereo not given) [Fructose-1,6-bisphosphate] | 16.6
Nc1nc2c(ncn2C2OC(COP(=O)(O)OP(=O)(O)OP(=O)(O)O)C(O)C2O)c(=O)[nH]1 (stereo not given) [GTP] | 17.1
CC(O)C(=O)O (stereo not given) [Lactic Acid] | 3.36
CC(C)CC(N)C(=O)O (stereo not given) [Leucine] | 6.08
NC(=O)C1=CN(C2OC(COP(=O)(O)OP(=O)(O)OCC3OC(n4cnc5c(N)ncnc54)C(OP(=O)(O)O)C3O)C(O)C2O)C=CC1 (stereo not given) [NADPH] | 14.7
NC(=O)c1ccc[n+](C2OC(COP(=O)(O)OP(=O)(O)OCC3OC(n4cnc5c(N)ncnc54)C(OP(=O)(O)O)C3O)C(O)C2O)c1 (stereo not given) [NADP] | 13.8
C=C(OP(=O)(O)O)C(=O)O [PEP] | 14.4
O=C(O)CCC(=O)O [Succinic Acid] | 9.39
O=C(CO)COP(=O)(O)O [Triose phosphate] | 9.84
CC(=O)NC1C(OP(=O)(O)OP(=O)(O)OCC2OC(n3ccc(=O)[nH]c3=O)C(O)C2O)OC(CO)C(O)C1O (stereo not given) [UDP-GlcNAc] | 9.63
O=C1CC(C(=O)O)NC(=O)N1 (stereo not given) [dihydroorotic acid] | 4.02

The next lines start with the values.

LC retention time [min] | Structure (SMILES)
8.62 | O=C(O)CCC(=O)C(=O)O [2-Oxoglutaric acid]
8.82 | Nc1ncnc2c1ncn2C1OC(COP(=O)(O)O)C(O)C1O (stereo not given) [AMP]
14.3 | Nc1ncnc2c1ncn2C1OC(COP(=O)(O)OP(=O)(O)OP(=O)(O)O)C(O)C1O (stereo not given) [ATP]
9.49 | CC(=O)SCCNC(=O)CCNC(=O)C(O)C(C)(C)COP(=O)(O)OP(=O)(O)OCC1OC(n2cnc3c(N)ncnc32)C(O)C1OP(=O)(O)O (stereo not given) [Acetyl-CoA]
3.65 | Nc1ncnc2c1ncn2C1OC(CO)C(O)C1O (stereo not given) [Adenosine]
11.9 | CC(C)(COP(=O)(O)OP(=O)(O)OCC1OC(n2cnc3c(N)ncnc32)C(O)C1OP(=O)(O)O)C(O)C(=O)NCCC(=O)NCCS (stereo not given) [CoenzymeA]
12.6 | O=P(O)(O)OCC1OC(O)C(O)C(O)C1O (stereo not given) [Glucose-6-phosphate]
9.29 | NC(CCC(=O)O)C(=O)O (stereo not given) [Glutamic acid]
10.4 | NC(=O)CCC(N)C(=O)O (stereo not given) [Glutamine]
9.84 | O=P(O)(O)OCC(O)CO (stereo not given) [Glycerol-3-phosphate]
6.94 | OCC1OC(O)C(O)C(O)C1O (stereo not given) [Hexose]
14.5 | O=C(O)CC(C(=O)O)C(O)C(=O)O (stereo not given) [Isocitric acid]
6.3 | CCC(C)C(N)C(=O)O (stereo not given) [Isoleucine]
7.99 | NC(=O)C1=CN(C2OC(COP(=O)(O)OP(=O)(O)OCC3OC(n4cnc5c(N)ncnc54)C(O)C3O)C(O)C2O)C=CC1 (stereo not given) [NADH]
10.5 | NC(=O)c1ccc[n+](C2OC(COP(=O)(O)OP(=O)(O)OCC3OC(n4cnc5c(N)ncnc54)C(O)C3O)C(O)C2O)c1 (stereo not given) [NAD]
13.3 | O=C(O)C(CO)OP(=O)(O)O (stereo not given) [Phosphoglyceric acid A]
6.33 | CCC(=O)OC(CC(=O)[O-])C[N+](C)(C)C (stereo not given) [carnitine-C3]
